Results on four compounds are retold here after PMC9721424, “Novel N-methylsulfonyl-indole derivatives: biological activity and COX-2/5-LOX inhibitory effect with improved gastro protective profile and reduced cardio vascular risks” (Journal of Enzyme Inhibition and Medicinal Chemistry, 2022).

Molecules are shown by their SMILES. Where two headings read alike, the source gives them in different places.

Series [1] addresses T1, 5-LOX enzyme (Homo sapiens, UniProt P09917).
T1 construct: purchased Cayman Chemical K980-100
T1 sequence (P09917 1-674): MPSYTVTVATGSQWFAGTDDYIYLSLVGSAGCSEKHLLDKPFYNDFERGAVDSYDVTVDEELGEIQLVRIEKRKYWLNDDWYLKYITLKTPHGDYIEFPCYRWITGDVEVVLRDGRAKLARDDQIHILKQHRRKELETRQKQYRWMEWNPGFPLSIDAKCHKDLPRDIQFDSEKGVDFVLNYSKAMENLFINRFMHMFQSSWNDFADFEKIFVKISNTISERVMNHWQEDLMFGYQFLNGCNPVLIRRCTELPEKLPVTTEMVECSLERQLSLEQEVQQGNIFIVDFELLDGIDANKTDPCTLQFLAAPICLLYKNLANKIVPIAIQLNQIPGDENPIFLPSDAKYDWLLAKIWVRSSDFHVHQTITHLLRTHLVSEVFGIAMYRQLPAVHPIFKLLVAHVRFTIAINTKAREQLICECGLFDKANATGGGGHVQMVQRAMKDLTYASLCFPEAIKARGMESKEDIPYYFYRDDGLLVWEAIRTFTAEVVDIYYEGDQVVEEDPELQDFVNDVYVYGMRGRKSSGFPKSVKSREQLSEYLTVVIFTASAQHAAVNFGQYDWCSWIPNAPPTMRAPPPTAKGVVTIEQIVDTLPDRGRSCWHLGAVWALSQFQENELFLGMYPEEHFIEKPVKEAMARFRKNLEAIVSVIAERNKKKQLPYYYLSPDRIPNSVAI
As to the kind of experiment: 5-LOX inhibition, Human Lipoxygenase Inhibitor Screening Assay (EIA) kit. In kind it is biochemical. How it is done:
The ability of the test compounds to inhibit the 5-LOX enzyme (IC50 value, μM) was detected using the Cayman Human Lipoxygenase Inhibitor Screening Assay (EIA) kit (catalog no. K980-100, Cayman Chemical). The IC50 values of test compounds were measured in µM according to the manufacturer’s instructions and reported method.

Series [2] is described as follows: DPPH free radical assay. To be noted: 540 nm, relative to Trolox; for DPPH test results (µM trolox equivalent/ 1mg sample ± SD): 30 min. In kind it is biochemical. How it is done:
Preparation of samples was occurred at the following concentrations: Samples 3a, 4a, 5b, 5d and 5e at final concentrations of 0.5 mg/ml in methanol: DMSO 9:1 v/v. Samples 4b and 4d at final concentrations 0.025 mg/ml in methanol: DMSO 9:1 v/v, sample 5a at final concentrations 0.25 mg/ml in methanol: DMSO 9:1 v/v, Sample 4c, 5c and 4e at final concentrations 0.05 mg/ml in methanol: DMSO 9:1 v/v, sample 3b at final concentration 0.75 mg/ml methanol: DMSO 9:1 v/v. A stock solution of 100 µM concentration of Trolox, a standard used in this experiment, was prepared in methanol from which seven concentrations were prepared, including 50, 40, 30, 20, 15, 10 and 5 µM.
The DPPH (2,2-diphenyl-1-picryl-hydrazyl-hydrate) free radical assay was carried out according to the method of Boly et al. 2016[39]. Briefly, freshly prepared DPPH reagent (100 µl, 0.1% in methanol) was added to 100 µl of the sample on 96 well plates (n = 6). The reaction was incubated at room temp for 30 min in the dark. After completion of the incubation time, the reduction in DPPH colour intensity was measured at 540 nm. Data obtained was represented as means ± SD, according to the following equation, percentage inhibition = [(Average absorbance of blank – average absorbance of the test)/(Average absorbance of blank)] *100. The results were recorded using a microplate reader, FluoStar Omega.
Microsoft Excel® was used to analyse the obtained results. The IC50 values were calculated using Graph pad Prism 6® by converting the concentrations to their logarithmic value and selecting the non-linear inhibitor regression equation (log (inhibitor) vs. normalised response – variable slope equation). The methods used and the final test report (R-SO7320) were obtained from Nawah Scientific.

In series [3] the target is T2, COX-2 (Ovis aries, UniProt P79208).
T2 sequence (P79208 17-603): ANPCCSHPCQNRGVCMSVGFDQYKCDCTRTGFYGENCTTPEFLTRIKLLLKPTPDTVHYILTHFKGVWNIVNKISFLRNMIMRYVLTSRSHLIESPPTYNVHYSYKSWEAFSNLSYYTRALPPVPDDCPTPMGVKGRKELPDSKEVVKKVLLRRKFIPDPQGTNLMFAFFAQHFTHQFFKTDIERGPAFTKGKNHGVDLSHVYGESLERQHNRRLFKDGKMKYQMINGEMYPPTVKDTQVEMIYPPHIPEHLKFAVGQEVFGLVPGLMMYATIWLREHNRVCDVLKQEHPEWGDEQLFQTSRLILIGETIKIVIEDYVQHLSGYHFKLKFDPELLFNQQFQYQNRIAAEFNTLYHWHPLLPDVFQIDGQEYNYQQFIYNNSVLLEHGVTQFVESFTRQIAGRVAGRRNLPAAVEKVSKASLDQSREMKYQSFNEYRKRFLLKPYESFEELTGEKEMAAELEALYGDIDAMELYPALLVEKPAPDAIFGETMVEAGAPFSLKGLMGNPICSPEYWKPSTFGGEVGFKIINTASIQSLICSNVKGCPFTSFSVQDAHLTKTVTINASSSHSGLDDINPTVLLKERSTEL
As to the kind of experiment: COX-2 inhibition, enzyme immune assay (EIA) kit. In kind it is biochemical, ovine. The following applies: for S.I (IC50 COX-1/IC50 COX-2): COX-2 selectivity index; for SI: lab report, COX1/COX2.

The subject of series [4] is TNF-α in RAW264.7 macrophage cells. As to the kind of experiment: In vitro measurement of TNF-α in RAW264.7 macrophage cells (RT-qPCR). The class given is cell-based. The text has this:
Both Lipopolysaccharides (LPS) and hispidin were purchased from Sigma (Sigma-Aldrich, St. Louis, MO, USA)[40]. The foetal bovine serum (FBS) and Dulbecco’s modified Eagle’s medium (DMEM) were purchased from Hyclone (General Electric Healthcare Life Sciences, Mississauga, Canada), penicillin streptomycin (P/S) was purchased from Solarbio (Solarbio life sciences, Beijing, P. R. China). Results of all in vitro anti-inflammatory screening were obtained from the confirmatory diagnostic unit, VACSERA, Egypt.
DMEM was used to cultivate the macrophage cells RAW264.7 (Shanghai BOGO Industrial Co., Ltd., Shanghai, China), and supplemented with 10% FBS and 1% P/S (100 U/ml and […], respectively). […] They were treated with various concentrations of hispidin, then with 1 μg/ml LPS for the indicated time.
PBS (1 ml/well) was used to wash the cells in 24-well plates. […] For the experiments, CL Buffer included MgCl2 (M1028; Sigma) or RNasin Plus RNase Inhibitor (N2615; Promega). Before use, both Bio-Rad SPR and CL buffer were equilibrated to room temperature. […] Carefully, the resulting lysates were collected and either analysed immediately or stored frozen ([…]).
RT-qPCR analysis was performed in one-step SYBR Green RT-qPCR. […] A CFX96 real-time PCR instrument (Bio-Rad) was used under the following protocol: 50uC for 10 min, 95uC for 5 min, 95uC for 10 s/61uC for 15 s/72uC for 30 s.
Total RNA purified from cells was used as an RT-qPCR quantification standard.

Series [5] has as its target T3, ovine COX-1 (Ovis aries, UniProt P05979).
T3 sequence (P05979 25-600): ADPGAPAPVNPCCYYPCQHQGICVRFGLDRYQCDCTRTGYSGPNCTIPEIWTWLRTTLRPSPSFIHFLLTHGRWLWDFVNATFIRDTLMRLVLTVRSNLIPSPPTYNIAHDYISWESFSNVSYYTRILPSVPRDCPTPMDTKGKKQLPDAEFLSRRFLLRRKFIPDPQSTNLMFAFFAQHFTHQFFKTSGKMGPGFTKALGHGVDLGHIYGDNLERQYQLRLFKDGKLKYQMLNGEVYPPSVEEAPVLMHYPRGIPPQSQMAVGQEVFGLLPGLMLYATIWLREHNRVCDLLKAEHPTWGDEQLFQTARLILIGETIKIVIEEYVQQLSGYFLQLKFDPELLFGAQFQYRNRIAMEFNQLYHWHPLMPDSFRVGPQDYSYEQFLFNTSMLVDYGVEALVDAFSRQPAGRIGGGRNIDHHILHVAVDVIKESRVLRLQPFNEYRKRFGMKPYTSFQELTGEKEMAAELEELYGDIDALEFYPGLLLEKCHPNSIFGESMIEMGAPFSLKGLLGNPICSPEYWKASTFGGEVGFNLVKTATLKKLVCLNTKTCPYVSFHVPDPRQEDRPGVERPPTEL
Kind of series: COX-1 inhibition, enzyme immune assay (EIA) kit.
Source text: Colorimetric enzyme immunoassay (EIA) kits were done to screen for the isozyme-specific inhibition.

Series [6] relates to stomach. Kind of series: Histopathological examination of stomach. In kind it is in vivo, rats. The following applies: rat, in vivo. How it is done: In brief, the stomachs of each animal group’s rat were fixed in 10% neutral buffered formalin for 48 h. The sections were then dehydrated, cleared, fixed in paraffin, sectioned ([…]), and stained with H&E stain.

For the compound `CS(=O)(=O)n1cc(/C=N/NC(=O)Nc2ccccc2)c2ccccc21` [Compound 3b, (E)-2{[1-(methylsulfonyl)-1H-indol-3yl]methylene}-N-phenylhydrazinecarboxamide], the melting point was in the range of 234 to 236 °C. Also, the IC50 in series [1] was 14.8 ± 0.78 µM. In series [1] (conc 0.1 (μM)), this compound showed a 5-LOX %inh of 5.27%. The compound further gave a 5-LOX %inh in series [1] (conc 1 (μM)) of 16.1%. This compound came in with a 5-LOX %inh in series [1] (conc 10 (μM)) of 36.1%. In series [1] (conc 100 (μM)), this compound yielded a 5-LOX %inh of 78.4%. Besides, the “DPPH test results (µM trolox equivalent/ 1mg sample ± SD)” value in series [2] was 14.38 ± 0.85 µM trolox equivalent/ 1mg sample. Moreover, in series [3], the “S.I (IC50 COX-1/IC50 COX-2)” value came out at 1.46 and the SI is reported as 1.455. Also, the TNF-α fold change in series [4] came to 0.71. In addition, the IC50 in series [5] (IC50 COX-1) was 32 ± 0.91 µM. The COX1 %inh in series [5] (conc 0.1 (μM)) was 3.48%. The same compound registered a COX1 %inh in series [5] (conc 1 (μM)) of 11.6%. In series [5] (conc 10 (μM)), this compound showed a COX1 %inh of 30.5%. In series [5] (conc 100 (μM)), this compound displayed a COX1 %inh of 68.5%.
Compound `Cc1ccc(NC(=S)N/N=C/c2cn(S(C)(=O)=O)c3ccccc23)cc1` [Compound 4d, (E)-2{[1-(methylsulfonyl)-1H-indol-3yl]methylene}-N-(p-tolyl)hydrazinecarbothioamide] gave a melting point of 237 to 239 °C. The compound also returned an IC50 in series [1] of 17.9 ± 0.95 µM. This compound returned a 5-LOX %inh in series [1] (conc 0.1 (μM)) of 4.88%. In series [1] (conc 1 (μM)), this compound registered a 5-LOX %inh of 12.5%. The same compound registered a 5-LOX %inh in series [1] (conc 10 (μM)) of 33.7%. The same compound showed a 5-LOX %inh in series [1] (conc 100 (μM)) of 77.2%. For the same compound, the “DPPH test results (µM trolox equivalent/ 1mg sample ± SD)” value in series [2] was 389.82 ± 19.25 µM trolox equivalent/ 1mg sample. Moreover, the DPPH anti-oxidant activity in series [2] (values in text) is 389.82 µM Trolox equivalent/mg. Besides, in series [3], the “S.I (IC50 COX-1/IC50 COX-2)” value is 2.38 and the SI worked out at 2.375. Moreover, in series [4], the TNF-α fold change amounted to 0.19. Besides, the IC50 in series [5] (IC50 COX-1) worked out at 17.1 ± 0.49 µM. In addition, the COX1 %inh in series [5] (conc 0.1 (μM)) turned out to be 7.22%. The compound further displayed a COX1 %inh in series [5] (conc 1 (μM)) of 13.4%. In addition, the COX1 %inh in series [5] (conc 10 (μM)) is 36.4%. Further, the COX1 %inh in series [5] (conc 100 (μM)) was found to be 75.8%.
On to `CS(=O)(=O)n1cc(/C=N/N=C2/NCC(=O)S2)c2ccccc21` [Compound 5a], for which the IC50 in series [1] was 9.23 ± 0.49 µM; in series [5] (read-out: IC50 COX-1), 3.95 ± 0.11 µM. For the same compound, the 5-LOX %inh in series [1] (conc 0.1 (μM)) is given as 7.21%; in series [1] (conc 1 (μM)), 17.4%; in series [1] (conc 10 (μM)), 50.3%; in series [1] (conc 100 (μM)), 79%. Also, the “DPPH test results (µM trolox equivalent/ 1mg sample ± SD)” value in series [2] is 12.71 ± 1.16 µM trolox equivalent/ 1mg sample. Also, in series [3], the “S.I (IC50 COX-1/IC50 COX-2)” value came to 0.59. The compound also displayed an SI in series [3] of 0.592. In addition, the TNF-α fold change in series [4] amounted to 0.66. For the same compound, the COX1 %inh was determined as 13.6% in series [5] (conc 0.1 (μM)), 32.4% in series [5] (conc 1 (μM)), 59% in series [5] (conc 10 (μM)) and 85.6% in series [5] (conc 100 (μM)).
For the compound `COc1ccc2c(c1)c(CC(=O)O)c(C)n2C(=O)c1ccc(Cl)cc1` [Indomethacin, reference compound], in series [6], the stomach histopathology finding entry is “multiple complete and perforating ulcers and superficial erosions”.
